Experiment [1] has as its system MCF7. Description: Effect on lipid peroxidation in human MCF7 cells assessed as increase in […] at 2 uM after 15 mins by BODIPY-C11 dye based fluorescence imaging analysis relative to control. The experiment is classed as functional.
Experiment [2] has as its system MCF7. Description: Inhibition of glycolysis in human MCF7 cells assessed as reduction in extracellular lactate level at 2 uM after 6 hrs by microplate reader assay. Type of experiment: functional, cell-based.
Experiment [3] can be described thus: Selectivity index, ratio IC50 for cytotoxicity against human HBMEC cells assessed as reduction in cell viability after 72 hrs by MTT assay to IC50 for anticancer activity against mouse 4T1 cells assessed as reduction in cell viability after 72 hrs by MTT assay.
The subject of experiment [4] is MCF7. Description: Induction of apoptosis in human MCF7 cells assessed as early apoptotic cells at 2 uM after 24 hrs by Annexin V-FITC/propidium iodide staining-based flow cytometric analysis (reference value: 3.53 %). The experiment is classed as functional.
The subject of experiment [5] is MCF7. As to the kind of experiment: Induction of ferroptosis in human MCF7 cells assessed as cell death at 2 uM pretreated with iron chelating agent deferoxamine followed by compound treatment by MTT assay. Type of experiment: functional, cell-based.
Experiment [6] has as its system Mus musculus. As to the kind of experiment: Modulation of tumor immunosuppressive activity in BALB/c mouse xenografted with mouse 4T1 cells assessed as increase in TNFalpha expression in tumor administered intratumorally every other day for 14 days measured at 2 days post-last dose by ELISA. Type of experiment: functional, organism-based.
For experiment [7], the target named is [Pyruvate dehydrogenase (acetyl-transferring)] kinase isozyme 1, mitochondrial (Homo sapiens) (UniProt Q15118). Description: Inhibition of PDK1 (unknown origin) in plasma using PDK tide as substrate measured after 90 mins in presence of ATP by ADP-Glo luminescent kinase assay. The experiment is classed as cell-free. (In general: ADP-Glo first removes unused ATP, then detects ADP through luciferase.)

The nature of experiment [8]: Selectivity index, ratio IC50 for cytotoxicity against human HBMEC cells assessed as reduction in cell viability after 72 hrs by MTT assay to IC50 for anticancer activity against human HCT116 cells assessed as reduction in cell viability after 72 hrs by MTT assay. A general note: Tetrazolium dyes change colour on reduction, which living cells bring about.
In experiment [9] the test system is HCT-116. As to the kind of experiment: Anticancer activity against human HCT116 cells expressing PDK assessed as reduction in cell viability after 72 hrs by MTT assay. Type of experiment: functional, cell-based. To be noted: HCT-116, 72 h.
Experiment [10] has as its system 4T1. As to the kind of experiment: Reversal of immunosuppression against mouse 4T1 cells implanted in BALB/c mouse assessed as growth inhibition of primary tumor at 2 mg/kg administered intratumorally every 2 days for 2 weeks measured after 14 days. The experiment is classed as functional, organism-based.
In experiment [11] the test system is MCF7. As to the kind of experiment: Induction of metabolic reversal from aerobic glycolysis to oxidative phosphorylation in human MCF7 cells assessed as decrease in oxygen consumption rate at 2 uM pretreated for 6 hrs followed by oligomycin A addition after 25 mins followed by subsequent addition of FCCP after 50 mins followed by antimycin/rotenone addition after 80 mins by seahorse XF24 extracellular flux analyzer assay. Type of experiment: functional, cell-based.

The source made the active and inactive calls. The rule behind the calls is not given here.

In general, IC50 refers to the point on the concentration scale where inhibition reaches its midpoint. With `CC1(C)CC[C@]2(C(=O)O)CC[C@]3(C)C(=CC[C@@H]4[C@@]5(C)CC[C@H](O[C@@H]6O[C@H](CO[C@@H]7OC[C@H](O)[C@H](O)[C@H]7O)[C@@H](O)[C@H](O)[C@H]6NC(=O)C(Cl)Cl)C(C)(C)[C@@H]5CC[C@]43C)[C@@H]2C1`, in experiment [1], the “fold change (FC)” value was 2.5. For the same compound, the inhibition entry in [2] was “Active”. Also, the “Ratio IC50” value in [3] worked out at 29.16; in [8], 9.87. For the same compound, in [4], the Activity is on record as 25.16%. Besides, the result in experiment [5] was inactive. Further, the result in [6] and in [11] was Active. Besides, in experiment [7], the inhibition result is “inactive”. Moreover, the IC50 in experiment [9] stood at 3.87 µM. Also, the “growth inhibition (GI)” value in experiment [10] is “Active”.

Values taken from ChEMBL document CHEMBL4354807, “Natural Product Albiziabioside A Conjugated with Pyruvate Dehydrogenase Kinase Inhibitor Dichloroacetate To Induce Apoptosis-Ferroptosis-M2-TAMs Polarization for Combined Cancer Therapy” (J Med Chem, 2019).
